Several values for one entry are separate records, joined by “and”; a condition that tells them apart may be missing. Equal entries are not always repeated. Structures can show the parent of a compound that is named as a salt. Where two headings read alike, the source gives them in different places.
How the values were obtained:
[1] = Concentration-response curve fitting and isobolographic analysis of CPEs on VCIP48; format: in vitro ADME, chinchilla
[2] = physchem; details: water
[3] = biological target: sodium current; details: read-out: KI, inhibition of sodium current, cited from earlier work
[4] = system: action potentials; details: read-out: median inhibitory concentration, amplitudes of action potentials, cited from earlier work
[5] = system: H. influenza; details: cited from earlier work
[6] = system: S. pneumoniae; details: cited from earlier work
[7] = three-parameter hyperbolic fit of CPE concentration-VCIP48 curve

CCCCN1CCCCC1C(=O)Nc1c(C)cccc1C (stereo not drawn) [BUP, bupivacaine hydrochloride]
Emax relative to that of LIM [1]: 9.76% | Emax relative to that of SDS [1]: 6.15% | CPE concentration at which the permeation enhancement effect plateaued ([1]; Cip permeation, CPPB): ~1% | concentration required to achieve VCIP48=0.22 mg (equivalent dose) ([1]; single CPE in CPPB): infinite | concentration required to achieve VCIP48=0.24 mg (equivalent dose) ([1]; single CPE in CPPB): infinite | concentration required to achieve a VCIP48 of 0.4 mg (equivalent dose) ([1]; single CPE in CPPB): infinite | Emax (maximal VCIP48), derived from Equation (1) [1, 7]: 0.04 mg | p (Hill coefficient) [1, 7]: 2.75 | soluble concentration (in 12%[P407-PBP] solution, weight by volume): up to 4% | effect of pH on solubility in water (pH of the formulation tuned in the range of 3 to 9): not affected | solubility [2]: ≥ 20 mg/mL

CCCCN1CCCCC1C(=O)Nc1c(C)cccc1C (stereo not drawn) [BUP-fb, bupivacaine free base]
solubility limit (in pure LIM): ~10%

C=C(C)[C@H]1CC=C(C)CC1 [LIM, limonene]
CPE concentration at which the permeation enhancement effect plateaued [1]: around 4% | Emax (maximal VCIP48), derived from Equation (1) [1]: 0.41 mg | concentration required to achieve VCIP48=0.22 mg (equivalent dose) [1]: ~1.8% | concentration required to achieve a VCIP48 of 0.4 mg (equivalent dose) [1]: ~4% | p (Hill coefficient) [1]: 5.33

CCCCCCCCCCCCOS(=O)(=O)[O-].[Na+] [SDS, Sodium dodecyl sulfate]
Emax (peak VCIP48), derived experimentally ([1]; experimentally determined peak effect, sulfate): 0.4 mg and 0.40 ^b mg | concentration required to achieve VCIP48=0.24 mg (equivalent dose) ([1]; single CPE in CPPB): 10% | p (Hill coefficient) [1, 7]: 0.82 ^ | Emax (maximal VCIP48), derived from Equation (1) ([1]; three-parameter hyperbolic fit of CPE concentration-VCIP48 curve, sulfate): 0.65 mg and 0.65 ^a mg

NC1=N[C@H](O)[C@H]2[C@H]3O[C@]4(O)O[C@@H]([C@@H](O)[C@@]2(N1)[C@@H]4O)[C@]3(O)CO [TTX, Tetrodotoxin]
Ki [3]: 0.001 to 0.002 µM | IC50 [4]: 0.005 to 0.006 µM

CCCCN1CCCCC1C(=O)Nc1c(C)cccc1C (stereo not drawn) [bupivacaine]
Ki ([3]; in vitro): 25 µM | IC50 ([4]; in vitro): 180 µM

O=C(O)c1cn(C2CC2)c2cc(N3CCNCC3)c(F)cc2c1=O [ciprofloxacin]
minimum inhibitory concentration [5]: about 4 μg/mL | minimum inhibitory concentration [6]: about 4 μg/mL
